Marks after values point to notes of the source that are not given here.
Columns and labels:
Design in all cases: species or system human
A2058 melanoma = test: In vivo growth of A2058 melanoma xenografts in nu/nu mice
MelJuso melanoma cells = test: Nrf2- and redox state-related enzyme activities and metabolites in MelJuso cells growing in vivo; conditions: in vivo +Pter, day 35
Experimental: Transfection of the Red Fluorescence Protein.
First the pDsRed-2 vector (Clontech Laboratories Inc., Palo Alto, Calif.) was used, as previously described for A375 melanoma cells (Mena, S. et al. J Transl Med 10, 8 (2012)), to engineer A2058, MeWo and MelJuso melanoma clones stably expressing the RFP. Isolation of A2058-RFP, MeWo-RFP or MelJuso-RFP cells from the growing xenografts was performed by laser microdissection and high-performance cell sorting as previously described in detail (Mena, S. et al. J Transl Med 10, 8 (2012)).
(§1) To measure enzyme activity, isolated tumor cells were homogenized in 0.1 M phosphate buffer (pH 7.2) at 4° C. GCL and GSS activities were measured as described previously (Obrador, E. et al. Hepatology 35, 74-81 (2002)). GPX (selenium dependent) activity was measured as described by Flohé and Gunzler (Flohe, L. & Gunzler, W. A. Methods Enzymol 105, 114-121 (1984)) using H2O2 as a substrate. GSR activity was determined as described by Akerboom and Sies (Akerboom, T. P. et al, Bull Eur Physiopathol Respir 17 Suppl, 221-227 (1981)). GGT activity was measured as described previously (Obrador, E. et al. Hepatology 35, 74-81 (2002)). GST activity was measured using an assay kit from Sigma. TXNRD activity, defined by the concentration of sodium-lipoate (disulfide) reduced to dehydrolipoate (dithiol) per milligram protein, was measured as previously described (Javvadi, P. et al. Cancer Res 70, 1941-1950 (2010)). SOD activity was measured as described by Flohé and Otting (Flohe, L. & Otting, F. Methods Enzymol 105, 93-104 (1984).) using 2 mM cyanide in the assay medium to distinguish mangano-type enzyme (SOD2) from the cuprozinc type (SOD1). CAT activity was analyzed as described by Aebi (Aebi, H. Methods Enzymol 105, 121-126 (1984)). NOX activity was measured by chemiluminescence following the methodology of Wind et al. (Wind, S. et al. Comparative pharmacology of chemically distinct NADPH oxidase inhibitors. Br J Pharmacol 161, 885-898 (2010)). Protein concentration was determined with the Pierce BCA protein assay (Fisher Scientific, Waltham, Mass.).
Measurement of H2O2 and O2^⋅−.
Quantitative measurement of H2O2 and flow cytometry determination of O2^⋅− generation were performed as previously described (Benlloch, M. et al. J Biol Chem 281, 69-79 (2006)).
(§2) GSH, GSSG, NADP^+ and NADPH Determination.
(§3) GSH and GSSG were determined, following procedures previously described (Obrador, E. et al. PLoS One 9, e96466 (2014)), by LC/MS using the same equipment described above for pterostilbene determination. Cell processing was performed according to published methodology, where rapid N-ethylmaleimide derivatization was used to prevent GSH auto-oxidation (Asensi, M. et al. Anal Biochem 217, 323-328 (1994)). NADP^+ and NADPH were quantitated using an assay kit from Sigma (St. Louis, Mo.).

MCF-7 cells = test: GSH levels and glutathione- and oxidative stress-related enzyme activities in MCF-7 cells growing in vivo; conditions: MCF-7, in vivo Pter, day 28
Experimental: as §1, §2, §3
(§4) Isolation of Tumor Cells from Mouse Xenografts Using Enzymatic Digestion and a double Ficoll gradient.
(§5) To maximize the amount of isolated cells, avoiding the use of RFP-transfected cells and subsequent laser microdissection, an alternative methodology was set up. To maximize cell yield and viability the following combination of enzymes was used: collagenase III (200 U/ml; Sigma-Aldrich), DNase I (200 U/ml; Sigma-Aldrich) and trypsin (5 mg/ml; Invitrogen), and a non-enzymatic dissociation buffer (NEDB, Invitrogen). Briefly, mice were killed, and tumors were removed (avoiding skin, muscle and fat) into cold culture media and processed immediately. The tumors were minced into 1-3 mm fragments, which were then incubated with the dissociation solution (see above) for 30 min at 37° C. The tumor fragments were mixed up and down every 10 min using a […] micropipette with a tip cut to a diameter adapted to tissue fragment size. After each incubation period, the fragments were filtered through a […] nylon mesh cell strainer (BD Biosciences, San Diego, Calif., USA). The released cells were centrifuged at 1200 r.p.m. for 2 min and stored in cold CO2-independent medium with 30% FCS at […]. Fresh dissociation solution was added to the remaining tissue fragments for 30 min. Dissociation was stopped when no additional cells were released. The fragments were pushed through a sieve and all cells from all incubation periods were pooled and counted.
(§6) The dissociated cells were layered onto a double Ficoll gradient (Histopaque; Sigma-Aldrich; densities 1.077 and 1.119) and spun at 700 g for 30 min at room temperature. Cells removed from both interfaces were pooled and washed two times in CO2-independent medium and stored at 4° C. Debris and red blood cell elimination was improved with the dual-density gradient. […]

LNCaP cells = test: GSH levels and glutathione- and oxidative stress-related enzyme activities in LNCaP cells growing in vivo; conditions: in vivo Pter, day 49
Experimental: as §1, §2, §3, §4, §5, §6

## COc1cc(/C=C/c2ccc(O)cc2)cc(OC)c1 [Pter, trans-3,5-dimethoxy-4′-hydroxystilbene]
A2058 melanoma; A2058, day 35, 30 mg Pter/kg i.v. every 48 h, vs controls
  inhibition of tumor growth: approx. 70%
A2058 melanoma; A2058-RFP, 35 days after inoculation, Pter 30 mg/kg i.v. every 48 h and/or CRC infusion 0.3 μg/h
  Tumor vol.: 258 ± 66* mm^3
MelJuso melanoma cells
  CAT: 1.1 ± 0.3 mU/10^6 cells
  G6PDH: 366 ± 63 mU/10^6 cells
  GCL: 49 ± 12 mU/10^6 cells
  GGT: 15.9 ± 3.5 mU/10^6 cells
  GPX: 2.1 ± 0.5 mU/10^6 cells
  GSH: 10.8 ± 2.9 nmol/10^6 cells
  GSH/GSSG: 108 ± 17
  GSR: 5.1 ± 1.0 mU/10^6 cells
  GSS: 7.8 ± 1.5 mU/10^6 cells
  GSSG: 0.1 ± 0.04 nmol/10^6 cells
  GST: 4.7 ± 1.3 mU/10^6 cells
  H2O2: 0.8 ± 0.2 nmol/10^6 cells × min
  IDH: 1.5 ± 0.4 U/10^6 cells
  ME: 25 ± 7 mU/10^6 cells
  NADPH: 0.05 ± 0.02 nmol/mg prot
  NADPH/NADP^+: 1.7 ± 0.3
  NADP^+: 0.03 ± 0.01 nmol/mg prot
  NOX: 142 ± 37 R.L.U./10^6 cells
  O2^−: 5.0 ± 1.3 ΔFL1, a.u.
  SOD1: 0.4 ± 0.2 U/10^6 cells
  SOD2: 0.1 ± 0.05 U/10^6 cells
  TXN: 0.3 ± 0.1 μg/10^6 cells
  TXNRD: 0.6 ± 0.1 U/10^6 cells
MCF-7 cells
  CAT: 0.5 ± 0.2 mU/10^6 cells
  GCL: 166 ± 34 mU/10^6 cells
  GSH: 30.6 ± 4.2 nmol/10^6 cells
  GSS: 25.2 ± 5.6 mU/10^6 cells
  GSSG: 0.3 ± 0.1 nmol/10^6 cells
  SOD1: 1.0 ± 0.08 U/10^6 cells
  SOD2: 0.12 ± 0.05 U/10^6 cells
LNCaP cells
  CAT: 1.9 ± 0.5 mU/10^6 cells
  GCL: 45 ± 14 mU/10^6 cells
  GSH: 3.7 ± 1.5 nmol/10^6 cells
  GSS: 4.0 ± 1.2 mU/10^6 cells
  GSSG: 0.12 ± 0.05 nmol/10^6 cells
  SOD1: 0.5 ± 0.1 U/10^6 cells
  SOD2: 0.01 ± 0.005 U/10^6 cells
